We go through 22 molecules from patent publication US12139474B2, “LPA receptor antagonists and uses thereof” (Gilead Sciences, Inc., priority 2020, dated 2024).

This assay has as its target T1, human LPAR1 (Homo sapiens, UniProt Q92633).
T1 construct: host or cells: CHO-K1
Put plainly: LPAR1 intracellular calcium mobilization assay (antagonist mode). Format: cell-based. The settings on record: CHO-K1 EDG2 cells expressing human LPAR1; 60 min pre-incubation with compound, then LPA 18:2 at EC80 (100 nM); FLIPR calcium signal. The procedure:
In vitro LPAR1 activity was measured in an intracellular calcium mobilization assay.
CHO-K1 EDG2 cells (DiscoverX cat #93-0644C2) expressing human LPAR1 (NM_001401.3) were seeded in a total volume of 25 μL of Dulbecco's Modification of Eagle's Medium (DMEM) with 10% Fetal Bovine Serum, 1× PenStrepGlutamine, 300 ug/ml Hygromycin, and 800 ug/ml G418 into 384-well tissue culture plate (Grenier #781091) at 15,000 cells/well and incubated at 37° C. overnight. Prior to testing, 25 μL Calcium Loading Dye Component A (FLIPR Calcium 6 Assay Kit Molecular Device #R8190) and 2.5 mM Probenecid (Invitrogen #P36400, prepared fresh) in Hank's Balanced Salt Solution (Corning #21-023-CV), 20 mM HEPES (Corning #25-060-CI), 0.1% Bovine Serum Albumin (Sigma-Aldrich #A7906-500G) was add to the cells for 60 minutes at 37° C.
Agonist dose curves of LPA 18:2 (Avanti Polar Lipids cat #857138, 0.5 nM to 10 μM) were recorded to determine the LPA 18:2 EC80 for subsequent antagonist assays. For agonist dose curves, cells were removed from the incubator 2 hours after dye loading and transferred to the FLIPR Tetra instrument (Molecular Devices, San Jose, CA). Calcium mobilization was monitored for 5 min and 10 μL 6× LPA in HBSS/20 mM Hepes/0.1% bovine serum albumin (BSA) was added to the cells 5 seconds into the assay.
To determine the LPAR1 antagonist activity of test compounds, cells were pre-incubated with test compound at a dose range of 0.5 nM to 10 μM, followed by LPA at EC80 concentration (100 nM). After dye loading, cells were removed from the incubator and 0.3 μL of 200× antagonist was added. Cells were incubated for 60 minutes at 37° C. Antagonist activity was measured on a FLIPR Tetra. Calcium mobilization was monitored for 3.5 minutes and 10 μL 6× EC80 LPA in HBSS, 20 mM HEPES, and 0.1% BSA was added to the cells 5 seconds into the assay. Signal amplitude (Maximum minus minimum) values were plotted against log10 of antagonist concentration using Dose Response Tool (Gilead Sciences Inc.) to determine EC50.
To assess the antagonistic potential of exemplified compounds EC50 values were determined for Compounds 1 to 32 in the LPAR1 calcium mobilization assay. The compound numbers correspond to the compound numbers in Examples 1 to 33.
(In general: A change in cytosolic calcium serves as a functional read-out for many receptors and channels.)

T1 sequence (Q92633 whole entry): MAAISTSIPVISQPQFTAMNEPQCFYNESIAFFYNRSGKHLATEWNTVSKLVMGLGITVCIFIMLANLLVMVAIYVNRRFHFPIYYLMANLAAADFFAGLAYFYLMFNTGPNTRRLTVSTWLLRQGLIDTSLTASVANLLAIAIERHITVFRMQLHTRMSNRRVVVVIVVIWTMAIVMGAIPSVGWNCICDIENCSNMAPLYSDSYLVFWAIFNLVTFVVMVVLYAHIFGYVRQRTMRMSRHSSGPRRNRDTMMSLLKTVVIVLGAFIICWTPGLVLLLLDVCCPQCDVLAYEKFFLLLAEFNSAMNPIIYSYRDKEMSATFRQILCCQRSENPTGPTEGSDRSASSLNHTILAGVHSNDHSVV

Consider `C[C@@H](OC(=O)Nc1c(-c2ccc3c(n2)OCC(=O)N3)nnn1C)c1cc(F)cnc1Cl` [Compound 1, (R)-1-(2-chloro-5-fluoropyridin-3-yl)ethyl (1-methyl-4-(2-oxo-2,3-dihydro-1H-pyrido[2,3-b][1,4]oxazin-6-yl)-1H-1,2,3-triazol-5-yl)carbamate], for which the EC50 (usually the midpoint of the concentration-response curve) amounted to 85 nM.
In the case of `CC(OC(=O)Nc1c(-c2ccc3c(n2)OCC(=O)N3)nnn1C)c1cc(F)ncc1F` (stereo not shown) [Compound 2, 1-(2,5-difluoropyridin-4-yl)ethyl(1-methyl-4-(2-oxo-2,3-dihydro-1H-pyrido[2,3-b][1,4]-oxazin-6-yl)-1H-1,2,3-triazol-5-yl)carbamate], the EC50 came to 1980 nM.
Under `C[C@@H](OC(=O)Nc1c(-c2ccc3c(n2)OCC(=O)N3)nnn1C)c1cc(F)cnc1F` [Compound 3, (R)-1-(2,5-difluoropyridin-3-yl)ethyl(1-methyl-4-(2-oxo-2,3-dihydro-1H-pyrido-[2,3-b][1,4]oxazin-6-yl)-1H-1,2,3-triazol-5-yl)carbamate] stands 66 nM; under `C[C@@H](OC(=O)Nc1c(-c2ccc3c(n2)OCC(=O)N3)nnn1C)c1cc(Cl)cnc1F` [Compound 4, (R)-1-(5-chloro-2-fluoropyridin-3-yl)-ethyl(1-methyl-4-(2-oxo-2,3-dihydro-1H-pyrido[2,3-b][1,4]-oxazin-6-yl)-1H-1,2,3-triazol-5-yl)-carbamate], 118 nM.
Under `Cn1nnc(-c2ccc3c(n2)OCC(=O)N3)c1NC(=O)O[C@H](CF)c1ccccc1` [Compound 5, (S)-2-fluoro-1-phenylethyl (1-methyl-4-(2-oxo-2,3-dihydro-1H-pyrido[2,3-b][1,4]-oxazin-6-yl)-1H-1,2,3-triazol-5-yl)-carbamate] stands 100 nM; under `C[C@@H](OC(=O)Nc1c(-c2cc3c(cc2F)NC(=O)CC3)nnn1C)c1cccnc1Cl` [Compound 6, [(1R)-1-(2-chloro-3-pyridyl)ethyl] N-[5-(7-fluoro-2-oxo-3,4-dihydro-1H-quinolin-6-yl)-3-methyl-triazol-4-yl]carbamate], 115 nM; under `C[C@@H](OC(=O)Nc1c(-c2ccc3c(c2F)CCC(=O)N3)nnn1C)c1cccnc1Cl` [Compound 7, (R)-1-(2-chloropyridin-3-yl)ethyl (4-(5-fluoro-2-oxo-1,2,3,4-tetrahydroquinolin-6-yl)-1-methyl-1H-1,2,3-triazol-5-yl)carbamate], 1230 nM.
As for `C[C@@H](OC(=O)Nc1c(-c2cnc3c(c2)OCC(=O)N3)nnn1C)c1cccnc1Cl` [Compound 8, (R)-1-(2-chloropyridin-3-yl)ethyl (1-methyl-4-(3-oxo-3,4-dihydro-2H-pyrido[3,2-b][1,4]oxazin-7-yl)-1H-1,2,3-triazol-5-yl)carbamate], the EC50 was found to be 765 nM.
To `C[C@@H](OC(=O)Nc1c(-c2ccc3c(c2)C(C)(C)OC(=O)N3)nnn1C)c1cccnc1F` [Compound 9, (R)-1-(2-fluoropyridin-3-yl)ethyl (4-(4,4-dimethyl-2-oxo-1,4-dihydro-2H-benzo[d][1,3]oxazin-6-yl)-1-methyl-1H-1,2,3-triazol-5-yl)carbamate] belongs 4610 nM; to `C[C@@H](OC(=O)Nc1c(-c2ccc3c(c2)CCC(=O)N3)nnn1C)c1ccccc1Cl` [Compound 11, (R)-1-(2-chlorophenyl)ethyl (1-methyl-4-(2-oxo-1,2,3,4-tetrahydroquinolin-6-yl)-1H-1,2,3-triazol-5-yl)carbamate], 46 nM.
Under `C[C@@H](OC(=O)Nc1c(-c2ccc3c(c2)COC(=O)N3)nnn1C)c1ccccc1Cl` [Compound 12, (R)-1-(2-chlorophenyl)ethyl(1-methyl-4-(2-oxo-1,4-dihydro-2H-benzo[d][1,3]-oxazin-6-yl)-1H-1,2,3-triazol-5-yl)-carbamate] stands 218 nM; under `C[C@@H](OC(=O)Nc1c(-c2ccc3c(c2)OCC(=O)N3)nnn1C)c1ccccc1Cl` [Compound 13, (R)-1-(2-chlorophenyl)ethyl(1-methyl-4-(3-oxo-3,4-dihydro-2H-benzo[b][1,4]-oxazin-7-yl)-1H-1,2,3-triazol-5-yl)-carbamate], 38 nM.
Under `C[C@@H](OC(=O)Nc1c(-c2ccc3c(c2)CC(=O)N3)nnn1C)c1ccccc1Cl` [Compound 14, (R)-1-(2-chlorophenyl)ethyl(1-methyl-4-(2-oxoindolin-5-yl)-1H-1,2,3-triazol-5-yl)carbamate] stands 4160 nM; under `C[C@@H](OC(=O)Nc1c(-c2ccc3[nH]c(=O)ccc3c2)nnn1C)c1ccccc1Cl` [Compound 15, (R)-1-(2-chlorophenyl)ethyl(1-methyl-4-(2-oxo-1,2-dihydroquinolin-6-yl)-1H-1,2,3-triazol-5-yl)carbamate], 565 nM.
Take `C[C@@H](OC(=O)Nc1c(-c2ccc3c(c2)COC(=O)N3)nnn1C)c1cccnc1Cl` [Compound 16, (R)-1-(2-chloropyridin-3-yl)ethyl (1-methyl-4-(2-oxo-1,4-dihydro-2H-benzo[d][1,3]-oxazin-6-yl)-1H-1,2,3-triazol-5-yl)-carbamate]: the EC50 was 525 nM.
As for `C[C@@H](OC(=O)Nc1c(-c2ccc3c(c2)CCC(=O)N3)nnn1C)c1cccnc1Cl` [Compound 17, (R)-1-(2-chloropyridin-3-yl)ethyl (1-methyl-4-(2-oxo-1,2,3,4-tetrahydroquinolin-6-yl)-1H-1,2,3-triazol-5-yl)-carbamate], the EC50 stood at 390 nM.
Take `C[C@@H](OC(=O)Nc1c(-c2ccc3c(c2)OCC(=O)N3)nnn1C)c1cccnc1Cl` [Compound 18, (R)-1-(2-chloropyridin-3-yl)ethyl (1-methyl-4-(3-oxo-3,4-dihydro-2H-benzo[b][1,4]-oxazin-7-yl)-1H-1,2,3-triazol-5-yl)-carbamate]: the EC50 is 265 nM.
Under `C[C@@H](OC(=O)Nc1c(-c2ccc3c(c2)N(C)CC(=O)N3)nnn1C)c1ccccc1Cl` [Compound 19, (R)-1-(2-chlorophenyl)ethyl (1-methyl-4-(4-methyl-2-oxo-1,2,3,4-tetrahydroquinoxalin-6-yl)-1H-1,2,3-triazol-5-yl)carbamate] stands 265 nM.
In the case of `C[C@@H](OC(=O)Nc1c(-c2ccc3c(c2)CCC(=O)N3)nnn1C)c1cc(F)cnc1Cl` [Compound 20, (R)-1-(2-chloro-5-fluoropyridin-3-yl)ethyl (1-methyl-4-(2-oxo-1,2,3,4-tetrahydroquinolin-6-yl)-1H-1,2,3-triazol-5-yl)carbamate], the 50% effective concentration (EC50) turned out to be 118 nM.
To `C[C@@H](OC(=O)Nc1c(-c2ccc3c(n2)OC(C)(C)C(=O)N3)nnn1C)c1cccnc1Cl` [Compound 21, (R)-1-(2-chloropyridin-3-yl)ethyl (4-(3,3-dimethyl-2-oxo-2,3-dihydro-1H-pyrido[2,3-b][1,4]oxazin-6-yl)-1-methyl-1H-1,2,3-triazol-5-yl)carbamate] belongs 2280 nM; to `CC1Oc2nc(-c3nnn(C)c3NC(=O)O[C@H](C)c3cccnc3Cl)ccc2NC1=O` (stereo partly drawn) [Compound 22, (R)-1-(2-chloropyridin-3-yl)ethyl (1-methyl-4-(3-methyl-2-oxo-2,3-dihydro-1H-pyrido[2,3-b][1,4]oxazin-6-yl)-1H-1,2,3-triazol-5-yl)carbamate], 86 nM.
To `C[C@@H](OC(=O)Nc1c(-c2ccc3c(n2)OCC(=O)N3)nnn1C)c1cccnc1Cl` [Compound 24, (R)-1-(2-chloropyridin-3-yl)ethyl (1-methyl-4-(2-oxo-2,3-dihydro-1H-pyrido[2,3-b][1,4]oxazin-6-yl)-1H-1,2,3-triazol-5-yl)carbamate] belongs 123 nM.
